8 compounds from US10519169B2, “3-(1H-pyrrolo[2,3-C]pyridin-2-yl)-1 H-pyrazolo[4,3-B]pyridines and therapeutic uses thereof” (Samumed, LLC, priority 2015, dated 2019) can be followed below.

Some results are limits rather than exact numbers.

Common to all, as to type: cell-based
The test system of test [1] is Wnt activity (Sp5-Luc reporter, TCF/LEF binding sites) in SW480 colon carcinoma cells. Nature of the test: Wnt activity screening assay, Sp5-Luc reporter gene in SW480 cells. The settings on record: Homo sapiens, overnight incubation. The text has this:
The screening assay for Wnt activity is described as follows. Reporter cell lines can be generated by stably transducing cancer cell lines (e.g., colon cancer) or primary cells (e.g., IEC-6 intestinal cells) with a lentiviral construct that includes a Wnt-responsive promoter driving expression of the firefly luciferase gene.
SW480 colon carcinoma cells were transduced with a lentiviral vector expressing luciferase with a human Sp5 promoter consisting of a sequence of eight TCF/LEF binding sites. SW480 cells stably expressing the Sp5-Luc reporter gene and a hygromycin resistance gene were selected by treatment with 150 μg/mL of hygromycin for 7 days. These stably transduced SW480 cells were expanded in cell culture and used for all further screening activities. Each compound was dissolved in DMSO as a 10 mM stock and used to prepare compound source plates. Serial dilution (1:3, 10-point dose-response curves starting from 10 μM) and compound transfer was performed using the ECHO 550 (Labcyte, Sunnyvale, Calif.) into 384-well white solid bottom assay plates (Greiner Bio-One) with appropriate DMSO backfill for a final DMSO concentration of 0.1%. For Sp5-Luc reporter gene assays, the cells were plated at 4,000 cells/well in 384-well plates with medium containing 1% fetal bovine serum and incubated overnight at 37° C. and 5% CO2. Following incubation, 20 μl of BrightGlo luminescence reagent (Promega) was added to each well of the 384-well assay plates. The plates were placed on an orbital shaker for 2 min and then luminescence was quantified using the Envision (Perkin Elmer) plate reader. Readings were normalized to DMSO only treated cells, and normalized activities were utilized for EC50 calculations using the dose-response log (inhibitor) vs. response-variable slope (four parameters) nonlinear regression feature available in GraphPad Prism 5.0 (or Dotmatics). For EC50 of >10 μM, the percent inhibition at 10 μM is provided.

The subject of another test is SW480 colon cancer cells. As to the kind of experiment: Cell viability assay (CellTiter-Blue), SW480 cells. Conditions: Homo sapiens, 96 h, four days, CellTiter-Blue. As for the experimental part: Representative compounds were screened using the following assay procedure to assess the effect on cell viability as described below.
Each compound was dissolved in DMSO as a 10 mM stock and used to prepare compound source plates. Serial dilution (1:3, 8-point dose-response curves from […]) and compound transfer was performed using the ECHO 550 (Labcyte, Sunnyvale, Calif.) into 96-well clear bottom, black-walled plates (Corning-Costar).
Approximately 2×10^3 SW480 colon cancer cells were seeded into each well and allowed to incubate in the presence or absence of compound for four days at 37° C./5% CO2. Eight replicates of DMSO-treated cells served as controls and cells treated with compound were performed in duplicate.
After incubation, 20 μL of CellTiter-Blue (Promega) was added to each well allowed to incubate for approximately 3 hours. This reagent was a buffered solution which contains resazurin, metabolically active cells were able to reduce rezarurin (blue) into resorufin (pink) which was highly fluorescent. This measured fluorescence was used as a readout for cell viability.
After incubation, the plates were read at Ex 560 nm Em 590 nm (Cytation 3, BioTek). Dose-response curves were generated and EC50 concentration values were calculated using non-linear regression curve fit in the GraphPad Prism (San Diego, Calif.) or Dotmatics' Studies Software (Bishops Stortford, UK). For EC50 of >10 μM, the percent inhibition at 10 μM is provided.

In test [2] the test system is primary human fibroblasts derived from IPF patients (LL29 cells) treated with TGF-β1. Nature of the test: Inhibition of fibrotic process, αSMA staining in TGF-β1 treated LL29 fibroblasts. The settings on record: Fibroblast; for EC50: 96 h, TGF-β1 20 ng/mL, 4 days, % cells positive for αSMA. The source says: Representative compounds were screened using primary human fibroblasts (derived from IPF patients) treated with TGF-β1 to determine their ability to inhibit the fibrotic process.
Primary human fibroblasts derived from IPF patients (LL29 cells) [^1Xiaoqiu Liu, et. al., “Fibrotic Lung Fibroblasts Show Blunted Inhibition by cAMP Due to Deficient cAMP Response Element-Binding Protein Phosphorylation”, Journal of Pharmacology and Experimental Therapeutics (2005), 315(2), 678-687; ^2Watts, K. L., et. al., “RhoA signaling modulates cyclin D1 expression in human lung fibroblasts; implications for idiopathic pulmonary fibrosis”, Respiratory Research (2006), 7(1), 88] were obtained from American Type Culture Collection (ATCC) and expanded in F12 medium supplemented with 15% Fetal Bovine Serum and Penicillin/Streptomycin.
Each compound was dissolved in DMSO as a 10 mM stock and used to prepare compound source plates. Serial dilution (1:2, 11-point dose-response curves from […] to […]) and compound transfer was performed using the ECHO 550 (Labcyte, Sunnyvale, Calif.) into 384-well clear bottom assay plates (Greiner Bio-One) with appropriate DMSO backfill for a final DMSO concentration of 0.1%. LL29 cells are plated at 1,500 cells/well in 80 μL/well F12 medium supplemented with 1% Fetal Bovine Serum. One hour after addition of the cells, TGF-β1 (Peprotech; 20 ng/mL) was added to the plates to induce fibrosis (ref. 1 and 2 above). Wells treated with TGF-β1 and containing DMSO were used as controls. Cells were incubated at 37° C. and 5% CO2 for 4 days. Following incubation for 4 days, SYTOX green nucleic acid stain (Life Technologies [Thermo Fisher Scientific]) was added to the wells at a final concentration of 1 μM and incubated at room temperature for 30 min. Cells were then fixed using 4% formaldehyde (Electron Microscopy Sciences), washed 3 times with PBS followed by blocking and permeabilization using 3% Bovine Serum Albumin (BSA; Sigma) and 0.3% Triton X-100 (Sigma) in PBS. Cells were then stained with antibody specific to α-smooth muscle actin (aSMA; Abcam) (ref. 1 and 2 above) in 3% Bovine Serum Albumin (BSA; Sigma) and 0.3% Triton X-100 (Sigma) in PBS, and incubated overnight at 4° C. Cells were then washed 3 times with PBS, followed by incubation with Alexa Flor-647 conjugated secondary antibody (Life Technologies [Thermo Fisher Scientific]) and DAPI at room temperature for 1 hour. Cells were then washed 3 times with PBS and plates were sealed for imaging. aSMA staining was imaged by excitation at 630 nm and emission at 665 nm and quantified using the Compartmental Analysis program on the CellInsight CX5 (Thermo Scientific). Dead or apoptotic cells were excluded from analysis based on positive SYTOX green staining. % of total cells positive for aSMA were counted in each well and normalized to the average of 11 wells treated with TGF-β1 on the same plate using Dotmatics' Studies Software. The normalized averages (fold change over untreated) of 3 replicate wells for each compound concentration were used to create dose-responses curves and EC50 values were calculated using non-linear regression curve fit in the Dotmatics' Studies Software. For EC50 of >10 μM, the percent inhibition at 10 μM is provided.

The subject of the next test is IL-6. As to the kind of experiment: IL-6 inhibition in LPS-stimulated THP-1 cells (HTRF). The settings on record: Homo sapiens; for EC50: LPS 500 ng/mL, 22 hours, IL6 HTRF; for inhibition at 10 µM: given for EC50 >10 μM, LPS, IL6, at 10 M [sic], read-out: percent inhibition at 10 M. As for the experimental part:
Human monocyte cell line (THP-1 cells; Catalog # TIB-202, ATCC, Manassas, Va.) were cultured in Roswell Park Memorial Institute (RPMI) 1640 Medium (Catalog #21870-100, Buffalo, N.Y.) with 1% L-glutamine, 1% HEPES, 1% Sodium Pyruvate, 2% Sodium Bicarbonate supplemented with 100 units/mL penicillin, 50 μg/mL streptomycin, 2-mercaptoethanol (0.05 mM) [basal medium] and 10% fetal bovine serum (Catalog #16140089, Life Technologies, Carlsbad, Calif.) at 37° C. and 5% CO2.
THP-1 cells were cultured in basal media with 1% FBS for 24 hours before the start of the assay. Each compound was dissolved in DMSO as a 10 mM stock and used to prepare compound source plates. Serial dilution (1:3, 10-point dose-response curves starting from 10 μM) and compound transfer was performed using the ECHO 550 (Labcyte, Sunnyvale, Calif.) into 384-well white low volume assay plates (Greiner Bio-One) with appropriate DMSO backfill for a final DMSO concentration of 0.1%. THP-1 cells were plated at 5000 cells/well in the 384-well plates and incubated at 37° C. for 2 h. 500 ng/mL of LPS was added after 2 hours and cells were incubated for another 22 hours at 37° C. Plates were spun in a centrifuge for 1 minute at […] and a mixture of anti-IL6 XL665, and anti-IL6 Cryptate diluted in reconstitution buffer (Cisbio Inc.) was added to each well. Following incubation for 3 hrs at room temperature, Homogeneous Time-Resolved Fluorescence (HTRF) was measured using the Envision (Perkin Elmer) at 665 nm and […]. The ratio of fluorescence at 665 nm to 620 nm was used as a readout for IL6 quantification. All samples were processed in duplicate. Readings were normalized to DMSO treated cells and normalized activities were utilized for EC50 calculations using the dose-response log (inhibitor) vs. response-variable slope (four parameters) nonlinear regression feature available in GraphPad Prism 5.0 (or Dotmatics). For EC50 of >10 μM, the percent inhibition at […] is provided.
(TR-FRET usually uses a lanthanide donor and a delayed reading to cut background.)

In the case of `CC(C)(C)C(=O)Nc1cncc(-c2ccc3[nH]nc(-c4cc5c(-c6cccc(F)c6)cncc5[nH]4)c3n2)c1` [Compound 8, N-(5-(3-(4-(3-Fluorophenyl)-1H-pyrrolo[2,3-c]pyridin-2-yl)-1H-pyrazolo [4,3-b]pyridin-5-yl)pyridin-3-yl)pivalamide], the EC50 (commonly the concentration that produces a half-maximal response) in test [1] was 1970 nM; with SW480 colon cancer cells, 1210 nM; in test [2], 2310 nM; with IL-6, 228 nM.

On to `O=C(Nc1cncc(-c2ccc3[nH]nc(-c4cc5c(-c6cccc(F)c6)cncc5[nH]4)c3n2)c1)C1CCCCC1` [Compound 23, N-(5-(3-(4-(3-Fluorophenyl)-1H-pyrrolo[2,3-c]pyridin-2-yl)-1H-pyrazolo [4,3-b]pyridin-5-yl)pyridin-3-yl)cyclohexanecarboxamide], for which the EC50 in test [1] is 1460 nM; with SW480 colon cancer cells, 1070 nM; in test [2], 718 nM; in the test on IL-6 it was above 10000 nM. Moreover, the inhibition (commonly the drop in the measured response relative to a control, in per cent) at 10 µM in the test with IL-6 was found to be 1%.

With `Fc1ccc(-c2cncc3[nH]c(-c4n[nH]c5ccc(-c6ccccn6)nc45)cc23)cc1` [Compound 56, 3-(4-(4-Fluorophenyl)-1H-pyrrolo[2,3-c]pyridin-2-yl)-5-(pyridin-2-yl)-1H-pyrazolo[4,3-b]pyridine], the EC50 in test [1] was 2320 nM; in the test with SW480 colon cancer cells, 1120 nM; in test [2], 1300 nM; in the test on IL-6, above 10000 nM. For the same compound, the inhibition at 10 µM in the test with IL-6 amounted to 32.6%.

For the compound `CC(C)CC(=O)Nc1cncc(-c2ccc3[nH]nc(-c4cc5c(-c6ccccc6F)cncc5[nH]4)c3n2)c1` [Compound 58, N-(5-(3-(4-(2-Fluorophenyl)-1H-pyrrolo[2,3-c]pyridin-2-yl)-1H-pyrazolo [4,3-b]pyridin-5-yl)pyridin-3-yl)-3-methylbutanamide], the EC50 was determined as 702 nM in test [1], 413 nM in the test on SW480 colon cancer cells, 697 nM in test [2] and 85 nM with IL-6.

Consider `O=C(Nc1cncc(-c2ccc3[nH]nc(-c4cc5c(-c6ccccc6F)cncc5[nH]4)c3n2)c1)C1CC1` [Compound 76, N-(5-(3-(4-(2-Fluorophenyl)-1H-pyrrolo[2,3-c]pyridin-2-yl)-1H-pyrazolo [4,3-b]pyridin-5-yl)pyridin-3-yl)cyclopropanecarboxamide], for which the EC50 in test [1] was 1420 nM; with SW480 colon cancer cells, 897 nM; in test [2] it was 2040 nM; with IL-6, 157 nM.

Consider `Fc1ccccc1-c1cncc2[nH]c(-c3n[nH]c4ccc(-c5cncc(CNCc6ccccc6)c5)nc34)cc12` [Compound 80, N-Benzyl-1-(5-(3-(4-(2-fluorophenyl)-1H-pyrrolo[2,3-c]pyridin-2-yl)-1H-pyrazolo[4,3-b]pyridin-5-yl)pyridin-3-yl)methanamine], for which the EC50 in test [1] was determined as 3980 nM; with SW480 colon cancer cells, 6720 nM; in test [2], 4600 nM; with IL-6 it was 5790 nM.

`CC(C)Nc1cncc(-c2ccc3[nH]nc(-c4cc5c(-c6cccnc6)cncc5[nH]4)c3n2)c1` [Compound 96, N-Isopropyl-5-(3-(4-(pyridin-3-yl)-1H-pyrrolo[2,3-c]pyridin-2-yl)-1H-pyrazolo[4,3-b]pyridin-5-yl)pyridin-3-amine]: the EC50 was 1730 nM in test [1], 1380 nM in the test on SW480 colon cancer cells, above 10000 nM in test [2] and 120 nM with IL-6. For the same compound, the inhibition at 10 µM in test [2] (given for EC50 >10 μM, TGF-β1, αSMA, 10 μM, read-out: percent inhibition at 10 μM) came to 0%.

Regarding `CCNCc1cncc(-c2ccc3[nH]nc(-c4cc5ccncc5[nH]4)c3n2)c1` [Compound 258, N-((5-(3-(1H-Pyrrolo[2,3-c]pyridin-2-yl)-1H-pyrazolo[4,3-b]pyridin-5-yl)pyridin-3-yl)methyl)ethanamine], the 50% effective concentration (EC50) in test [1] came out at 8450 nM; in the test on SW480 colon cancer cells, 3580 nM; in test [2] it was 6630 nM; with IL-6, 873 nM.
